Laboratory results as given in DBAASP.
≈ marks a conversion by molar mass, not a printed value. One block for each compound: values may come before it.

Tests used:
Assay in all cases: ≥ marks a high value that may be exact or a test limit, other limits are often not marked, values filed in µg/mL are converted to µM
[1] = system: Neisseria gonorrhoeae FA19
[2] = system: Neisseria gonorrhoeae F62
[3] = system: Staphylococcus aureus BCRC 10780
[4] = system: Micrococcus luteus BCRC 11034
[5] = system: Vibrio harveyi BCRC 13812
[6] = system: Vibrio alginolyticus
[7] = system: Streptococcus pneumoniae BCRC 10794
[8] = system: Staphylococcus sp. BCRC 10451
[9] = system: Acinetobacter baumannii Al1852-ΔLpxD
[10] = system: Acinetobacter baumannii ATCC 19606
[11] = system: Pseudomonas aeruginosa DSM 1117
[12] = system: Candida albicans CEMTC 34
[13] = system: Staphylococcus epidermidis DSM 28319
[14] = system: Staphylococcus aureus DSM 11729
[15] = system: Salmonella enterica DSM 17058
[16] = system: Klebsiella pneumoniae DSM 789
[17] = system: Shigella sonnei DSM 5570
[18] = system: Candida glabrata CEMTC 2563
[19] = system: Acinetobacter baumannii AL1851-ΔLpxA
[20] = system: Candida albicans ATCC 10231
[21] = system: Candida tropicalis CEMTC 2385
[22] = system: Candida parapsilosis CEMTC 2529
[23] = system: Escherichia coli DSM 1103
[24] = system: Citrobacter freundii DSM 30029
[25] = system: Pseudomonas aeruginosa PAO1
[26] = system: Enterococcus faecalis ATCC 29212
[27] = system: Klebsiella pneumoniae ATCC 700603
[28] = system: Pseudomonas aeruginosa ATCC 27853
[29] = system: Pseudomonas aeruginosa 447
[30] = system: Pseudomonas aeruginosa
[31] = system: Haemophilus influenzae ATCC 49247
[32] = system: Escherichia coli ATCC 25922
[33] = system: Enterobacter cloacae ATCC 13047
[34] = system: Klebsiella aerogenes
[35] = system: Klebsiella pneumoniae ATCC 13883
[36] = system: Staphylococcus aureus
[37] = system: Enterobacter cloacae
[38] = system: Staphylococcus aureus ATCC 43300
[39] = system: Staphylococcus aureus ATCC 25923
[40] = system: Escherichia coli ML-35p
[41] = system: Candida albicans ATCC 2002
[42] = system: Haemophilus influenzae ATCC 49766
[43] = system: Candida albicans
[44] = system: Escherichia coli
[45] = system: Escherichia coli ATCC 35218
[46] = system: Staphylococcus aureus ATCC 25325
[47] = system: Bacillus cereus ATCC 11778
[48] = system: Pseudomonas aeruginosa ATCC 9027
[49] = system: Staphylococcus aureus ATCC 25023

MIC [1]: 10 µM (≈ 14 µg/mL)
MIC [2]: 3.2 µM (≈ 4.49 µg/mL)
Compound: CC(C)[C@H](NC(=O)[C@@H]1CSSC[C@H](N)C(=O)N[C@@H](Cc2ccc(O)cc2)C(=O)N[C@H]2CSSC[C@H](NC(=O)[C@H](Cc3ccccc3)NC(=O)[C@H](CCCN=C(N)N)NC(=O)[C@H](CCCN=C(N)N)NC(=O)[C@H](CCCN=C(N)N)NC2=O)C(=O)N[C@@H](C(C)C)C(=O)N1)C(N)=O [CYCRRRFCVCV]

MIC [3]: 4.17 µM (≈ 6.42 µg/mL)
MIC [4]: ≥ 33.3 µM
MIC [5]: 4.17 µM (≈ 6.42 µg/mL)
MIC [6]: 4.17 µM (≈ 6.42 µg/mL)
MIC [7]: 16.7 µM (≈ 25.7 µg/mL)
MIC [8]: 4.17 µM (≈ 6.42 µg/mL)
Compound: CC[C@H](C)[C@H](NC(=O)[C@H](Cc1ccccc1)NC(C)=O)C(=O)N[C@@H](Cc1ccccc1)C(=O)N[C@@H](Cc1cnc[nH]1)C(=O)N[C@H](C(=O)N[C@H](C(=O)N[C@@H](CCCCN)C(=O)NCC(=O)N[C@@H](CC(C)C)C(=O)N[C@@H](Cc1ccccc1)C(=O)N[C@@H](Cc1cnc[nH]1)C(=O)N[C@@H](C)C(=O)NCC(N)=O)[C@@H](C)CC)[C@@H](C)CC [FIFHIIKGLFHAG]

MIC [9]: ≥ 32 µM
MIC [10]: 32 µM (≈ 45.2 µg/mL)
MIC [11]: 1 µM (≈ 1.41 µg/mL)
MIC [12]: 20 µM (≈ 28.3 µg/mL)
MIC [13]: 0.5 µM (≈ 0.706 µg/mL)
MIC [14]: 16 µM (≈ 22.6 µg/mL)
MIC [15]: 16 µM (≈ 22.6 µg/mL)
MIC [16]: ≥ 32 µM
MIC [17]: 2 µM (≈ 2.83 µg/mL)
MIC [18]: 20 µM (≈ 28.3 µg/mL)
MIC [19]: 16 µM (≈ 22.6 µg/mL)
MIC [20]: 20 µM (≈ 28.3 µg/mL)
MIC [21]: 10 µM (≈ 14.1 µg/mL)
MIC [22]: 20 µM (≈ 28.3 µg/mL)
MIC [23]: 2 µM (≈ 2.83 µg/mL)
MIC [24]: 4 µM (≈ 5.65 µg/mL)
Compound: NCCCC[C@H](NC(=O)[C@H](Cc1ccccc1)NC(=O)[C@H](Cc1ccccc1)NC(=O)[C@H](CCCCN)NC(=O)[C@H](Cc1ccccc1)NC(=O)[C@H](Cc1ccccc1)NC(=O)[C@H](CCCCN)NC(=O)[C@H](Cc1ccccc1)NC(=O)[C@H](Cc1ccccc1)NC(=O)[C@@H](N)CCCCN)C(N)=O [KFFKFFKFFK]

Compound: CC[C@H](C)[C@H](NC(=O)[C@@H](NC(=O)[C@H](CCCN=C(N)N)NC(=O)[C@@H]1CCCN1C(=O)[C@H](CCCCN)NC(=O)[C@H](CCCCN)NC(=O)[C@H](Cc1ccccc1)NC(=O)[C@H](Cc1ccccc1)NC(=O)[C@H](CCCCN)NC(=O)[C@H](CCCCN)NC(=O)[C@H](C)NC(=O)[C@H](CCCN=C(N)N)NC(=O)[C@H](CCCCN)NC(=O)[C@H](CCCCN)NC(=O)[C@@H](NC(=O)[C@H](CO)NC(=O)[C@H](CC(N)=O)NC(=O)[C@H](CCCCN)NC(=O)[C@H](CC(C)C)NC(=O)[C@H](CCCCN)NC(=O)[C@H](CCCCN)NC(=O)[C@H](Cc1ccccc1)NC(=O)[C@H](Cc1ccccc1)NC(=O)[C@@H](N)CCCCN)C(C)C)C(C)C)C(=O)NCC(=O)N[C@H](C(=O)N[C@@H](CO)C(=O)N[C@H](C(=O)N1CCC[C@H]1C(=O)N[C@@H](Cc1ccccc1)C(=O)O)[C@@H](C)CC)C(C)C [KFFKKLKNSVKKRAKKFFKKPRVIGVSIPF]
MIC [25]: 1.74 µM (≈ 6.25 µg/mL)
MIC [26]: 6.95 µM (≈ 25 µg/mL)
MIC [27]: 0.869 µM (≈ 3.13 µg/mL)
MIC [28]: 1.74 µM (≈ 6.25 µg/mL)
MIC [29]: 1.74 µM (≈ 6.25 µg/mL)
MIC [30]: 3.48 µM (≈ 12.5 µg/mL)
MIC [31]: 0.869 µM (≈ 3.13 µg/mL)
MIC [32]: 1.74 µM (≈ 6.25 µg/mL)
MIC [33]: 6.95 µM (≈ 25 µg/mL)
MIC [34]: 1.74 µM (≈ 6.25 µg/mL)
MIC [35]: 1.74 µM (≈ 6.25 µg/mL)
MIC [36]: 1.74 µM (≈ 6.25 µg/mL)
MIC [37]: 0.869 µM (≈ 3.13 µg/mL)
MIC [38]: 1.74 µM (≈ 6.25 µg/mL)
MIC [39]: 0.869 µM (≈ 3.13 µg/mL)
MIC [40]: 0.869 µM (≈ 3.13 µg/mL)
MIC [41]: ≥ 55.6 µM
MIC [42]: 0.869 µM (≈ 3.13 µg/mL)
MIC [43]: > 55.6 µM
MIC [44]: 1.74 µM (≈ 6.25 µg/mL)

MIC [26]: 52.3 µM (≈ 76.2 µg/mL)
MIC [28]: 56 µM (≈ 81.6 µg/mL)
MIC [45]: ≥ 43.4 µM
MIC [46]: ≥ 40.2 µM
Compound: CC(C)C[C@H](NC(=O)CNC(=O)[C@@H](NC(=O)[C@H](Cc1cnc[nH]1)NC(=O)[C@H](CCCCN)NC(=O)[C@H](CC(C)C)NC(=O)[C@@H](N)CCCCN)C(C)C)C(=O)N[C@@H](Cc1cnc[nH]1)C(=O)N[C@H](C(=O)NCC(=O)N[C@@H](CCCCN)C(=O)N[C@@H](CC(C)C)C(=O)N[C@@H](CCCCN)C(=O)O)C(C)C [KLKHVGLHVGKLK]

MIC [45]: ≥ 50 µM
MIC [47]: ≥ 50 µM
MIC [39]: > 50 µM
MIC [48]: > 50 µM
Compound: CC(C)C[C@H](NC(=O)[C@@H](NC(=O)[C@H](CCCCN)NC(=O)[C@H](CCCCN)NC(=O)[C@H](CC(C)C)NC(=O)[C@@H](N)CC(C)C)C(C)C)C(=O)N[C@@H](CCCCN)C(=O)N[C@@H](C)C(=O)N[C@@H](C)C(=O)N[C@@H](C)C(N)=O [LLKKVLKAAA]

MIC [49]: 1.51 µM (≈ 2 µg/mL)
Compound: CC(C)C[C@H](NC(=O)[C@H](CCCN=C(N)N)NC(=O)[C@H](CC(C)C)NC(=O)[C@H](CC(C)C)NC(=O)[C@H](CC(C)C)NC(=O)[C@H](CC(C)C)NC(=O)[C@H](CC(C)C)NC(=O)[C@H](CCCCN)NC(=O)[C@H](Cc1c[nH]c2ccccc12)NC(=O)[C@@H](N)CCCN=C(N)N)C(N)=O [RWKLLLLLRL]
